Test results taken from patent EP4818158A1, “BIARYL COMPOUND” (Kissei Pharmaceutical Co., Ltd., priority 2023, dated 2025).

Biological target: T1, human TSHR (Homo sapiens, UniProt P16473)
T1 construct: expressed in transfected cells
Assay: Antagonist activity using TSH-induced cAMP generation in human TSHR-stably expressing CHO cells
Format: cell-based
Details: human TSH 50 ng/mL
Method: Measurement of antagonist activity using TSH-induced cAMP generation in human TSHR-stably expressing CHO cells as an indicator
The gene sequence (reference number: NM_000369.2) of a human TSHR was inserted into multiple cloning sites of pcDNA3.1 (+). Prepared plasmid vectors were introduced into CHO cells using a lipofection method, and human TSHR-stably expressing CHO cells were established. Obtained cells were seeded in a 96-well poly-D-lysine-coated plate at 5 × 10^4 cells/well and cultured in an F12 culture medium containing 10%FBS, 400 µg/mL of G418, 50 U/mL of penicillin, and 50 µg/mL of streptomycin under conditions of 37°C and 5% CO2 for one day. After the culture medium was removed, the cells were washed twice with 100 µL of an assay buffer solution (Hanks' Balanced Salt Solution containing 20 mM HEPES and 1 mM IBMX) per well. 30 µL of a test compound-containing assay buffer solution was added to the well and incubated at room temperature for 15 minutes. Next, 30 µL of an assay buffer solution containing human TSH (final concentration: 50 ng/mL, R&D Systems, Inc.) was added thereto and incubated at 37°C for one hour. A supernatant was removed, a Lysis and Detection Buffer 2(Cisbio) was added thereto, and the mixture was incubated at room temperature for one hour to prepare a cell lysate. According to the instruction manual of a cAMP Gs HiRange kit (Cisbio), the cell lysate, d2-labeled cAMP, and anti-cAMP Europium Cryptate labeled antibodies (Cisbio) were reacted together in a 384-well white microplate. Next, fluorescence intensity ratios (measurement wavelengths: 665 nm/620 nm) were measured using a multi-plate reader (PHERAstar FSX, BMG LABTECH, Japan). The fluorescence intensity ratio of each sample was converted to a cAMP content using a standard curve. The cAMP content was converted as a percentage of the control value to calculate a cAMP generation rate. The cAMP generation rates were plotted against the test compound concentrations using Prism (Graph Pad Software Inc.) to calculate IC50 values. The IC50's of the individual test compounds are shown in the above tables. In the tables, IC50 < 0.3 µM was denoted as A, and 0.3 µM ≤ IC50 < 30 µM was denoted as B. Cases where the IC50 values were not calculated for test compounds from which activity was recognized are denoted as C.

T1 sequence (P16473 21-764): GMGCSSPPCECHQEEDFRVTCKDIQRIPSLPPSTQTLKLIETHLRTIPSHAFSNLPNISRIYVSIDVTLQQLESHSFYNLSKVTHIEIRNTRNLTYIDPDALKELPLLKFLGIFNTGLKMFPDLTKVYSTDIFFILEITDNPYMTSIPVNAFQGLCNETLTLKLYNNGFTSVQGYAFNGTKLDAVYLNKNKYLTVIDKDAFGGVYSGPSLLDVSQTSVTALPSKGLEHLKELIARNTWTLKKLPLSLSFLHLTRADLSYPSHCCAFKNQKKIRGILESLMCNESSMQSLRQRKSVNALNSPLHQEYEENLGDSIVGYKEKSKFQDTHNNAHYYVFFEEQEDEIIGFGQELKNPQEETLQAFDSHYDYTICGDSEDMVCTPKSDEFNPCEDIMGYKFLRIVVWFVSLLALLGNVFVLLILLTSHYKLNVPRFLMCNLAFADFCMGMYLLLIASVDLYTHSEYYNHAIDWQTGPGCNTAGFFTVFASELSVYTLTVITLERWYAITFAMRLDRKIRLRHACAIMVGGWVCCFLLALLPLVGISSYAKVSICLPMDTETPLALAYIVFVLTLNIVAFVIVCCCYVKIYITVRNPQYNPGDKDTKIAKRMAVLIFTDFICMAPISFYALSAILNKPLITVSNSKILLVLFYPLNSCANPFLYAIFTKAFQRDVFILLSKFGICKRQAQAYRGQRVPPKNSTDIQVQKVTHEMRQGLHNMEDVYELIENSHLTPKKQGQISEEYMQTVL

IC50 [µM]	SMILES
0.3 to 30	Cc1cnc(CNC(N)=O)c(-c2ccc(NC(=O)OC(C)(C)C)c(F)c2Cc2ccccc2F)c1 [Example A-10, tert-Butyl (2-fluoro-3-(2-fluorobenzyl)-4-(5-methyl-2-(ureidomethyl)pyridin-3-yl)phenyl)carbamate]
0.3 to 30	CC(C)(C)OC(=O)Nc1ccc(-c2cccnc2CNC(N)=O)c(Cc2c(F)cccc2C#N)c1F [Example A-3, tert-Butyl (3-(2-cyano-6-fluorobenzyl)-2-fluoro-4-(2-(ureidomethyl)pyridin-3-yl)phenyl)carbamate]
< 0.3	C[C@H](OC(=O)Nc1ccc(-c2cccnc2CCC(N)=O)c(C(=O)c2ccccc2F)c1F)C(F)(F)F [Example E-4, (S)-1,1,1-Trifluoropropan-2-yl (4-(2-(3-amino-3-oxopropyl)pyridin-3-yl)-2-fluoro-3-(2-fluorobenzoyl)phenyl)carbamate]
< 0.3	Cc1ccccc1C(=O)c1c(-c2cccnc2CNC(N)=O)ccc(NC(=O)OC(C)(C)C)c1F [Example E-1, tert-Butyl (2-fluoro-3-(2-methylbenzoyl)-4-(2-(ureidomethyl)pyridin-3-yl)phenyl)carbamate]
0.3 to 30	CC(C)(C)OC(=O)Nc1ccc(-c2cccnc2CNC(N)=O)c(Cc2ncccc2F)c1F [Example F-1, tert-Butyl (2-fluoro-3-((3-fluoropyridin-2-yl)methyl)-4-(2-(ureidomethyl)pyridin-3-yl)phenyl)carbamate]
0.3 to 30	CC(C)(OC(=O)Nc1ccc(-c2cccnc2CNC(N)=O)c(Cc2ccccc2C#N)c1F)C(F)F [Example A-37, 1,1-Difluoro-2-methylpropan-2-yl (3-(2-cyanobenzyl)-2-fluoro-4-(2-(ureidomethyl)pyridin-3-yl)phenyl)carbamate]
< 0.3	CC(C)(C)OC(=O)Nc1ccc(-c2ccnnc2CNC(N)=O)c(Cc2ccccc2F)c1F [Example C-1, tert-Butyl (2-fluoro-3-(2-fluorobenzyl)-4-(3-(ureidomethyl)pyridazin-4-yl)phenyl)carbamate]
< 0.3	CC(C)(C)OC(=O)Nc1ccc(-c2cccnc2CNC(N)=O)c(Cc2ccccc2O)c1F [Example A-19, tert-Butyl (2-fluoro-3-(2-hydroxybenzyl)-4-(2-(ureidomethyl)pyridin-3-yl)phenyl)carbamate]
> 30	CC(C)(C)OC(=O)Nc1ccc(-c2cccnc2CNC(N)=O)c(C(=O)N2CCOCC2)c1F [Example F-8, tert-Butyl (2-fluoro-3-(morpholine-4-carbonyl)-4-(2-(ureidomethyl)pyridin-3-yl)phenyl)carbamate]
< 0.3	CC(C)(C)OC(=O)Nc1ccc(-c2cccnc2CCC(N)=O)c(Oc2ccccc2F)c1F [Example B-6, tert-Butyl (4-(2-(3-amino-3-oxopropyl)pyridin-3-yl)-2-fluoro-3-(2-fluorophenoxy)phenyl)carbamate]
< 0.3	CC(C)(C)OC(=O)Nc1ccc(-c2cccnc2CNC(N)=O)c(Oc2ccccc2)c1F [Example B-1, tert-Butyl (2-fluoro-3-phenoxy-4-(2-(ureidomethyl)pyridin-3-yl)phenyl)carbamate]
< 0.3	CC(C)(C)OC(=O)Nc1ccc(-c2cccnc2CCC(N)=O)c(C(=O)c2ccccc2C(F)(F)F)c1F [Example E-8, tert-Butyl (4-(2-(3-amino-3-oxopropyl)pyridin-3-yl)-2-fluoro-3-(2-(trifluoromethyl)benzoyl)phenyl)carbamate]
0.3 to 30	CC(C)(C)OC(=O)Nc1ccc(-c2cccnc2CCC(N)=O)c(Cc2ccccc2S(C)(=O)=O)c1F [Example A-40, tert-Butyl (4-(2-(3-amino-3-oxopropyl)pyridin-3-yl)-2-fluoro-3-(2-(methylsulfonyl)benzyl)phenyl)carbamate]

The next lines start with the compound.

SMILES	IC50 [µM]
CC(O)c1ncccc1-c1ccc(NC(=O)OC(C)(C)C)cc1Oc1ccccc1 (centres unmarked) [Example B-7, tert-Butyl (4-(2-(1-hydroxyethyl)pyridine-3-yl)-3-phenoxyphenyl)carbamate]	> 30
CC(C)(C)OC(=O)Nc1c(F)cc(-c2cccnc2CNC(N)=O)c(Cc2ccccc2F)c1F [Example A-14, tert-Butyl (2,6-difluoro-3-(2-fluorobenzyl)-4-(2-(ureidomethyl)pyridin-3-yl)phenyl)carbamate]	< 0.3
NC(=O)NCc1ncccc1-c1ccc(NC(=O)OC2CC2)c(F)c1Cc1ccccc1F [Example A-26, Cyclopropyl (2-fluoro-3-(2-fluorobenzyl)-4-(2-(ureidomethyl)pyridin-3-yl)phenyl)carbamate]	0.3 to 30
NC(=O)NCc1ncccc1-c1ccc(NC(=O)C2CC2)c(F)c1Cc1ccccc1F [Example G-3, N-(2-Fluoro-3-(2-fluorobenzyl)-4-(2-(ureidomethyl)pyridin-3-yl)phenyl)cyclopropanecarboxamide]	0.3 to 30
CC(C)(C)OC(=O)Nc1ccc(-c2nccnc2CCC(N)=O)c(Cc2ccccc2)c1F [Example H-1, tert-Butyl (4-(3-(3-amino-3-oxopropyl)pyrazin-2-yl)-3-benzyl-2-fluorophenyl)carbamate]	0.3 to 30
C[C@H](OC(=O)Nc1ccc(-c2ccnnc2CNC(N)=O)c(Cc2ccccc2F)c1F)C(F)(F)F [Example C-2, (S)-1,1,1-Trifluoropropan-2-yl (2-fluoro-3-(2-fluorobenzyl)-4-(3-(ureidomethyl)pyridazin-4-yl)phenyl)carbamate]	< 0.3
NC(=O)NCc1ncccc1-c1ccc(NC(=O)OCC2CC2(F)F)c(F)c1Cc1ccccc1F (centres unmarked) [Example A-33]	< 0.3
CON(C(=O)Nc1ccc(-c2cccnc2CNC(N)=O)c(Cc2ccccc2F)c1F)C1CCCC1 [Example G-9, 1-Cyclopentyl-3-(2-fluoro-3-(2-fluorobenzyl)-4-(2-(ureidomethyl)pyridin-3-yl)phenyl)-1-methoxyurea]	0.3 to 30
Cc1nnccc1-c1ccc(NC(=O)OC(C)(C)C)c(F)c1Cc1ccccc1F [Example C-9, tert-Butyl (2-fluoro-3-(2-fluorobenzyl)-4-(3-methylpyridazin-4-yl)phenyl)carbamate]	0.3 to 30
CC(C)(C)OC(=O)Nc1ccc(-c2cccnc2CNC(N)=O)c(CN2CCOCC2)c1F [Example F-4, tert-Butyl (2-fluoro-3-(morpholinomethyl)-4-(2-(ureidomethyl)pyridin-3-yl)phenyl)carbamate]	0.3 to 30
C[C@H](OC(=O)Nc1ccc(-c2ccnnc2CCC(N)=O)c(Oc2ccccc2F)c1F)C(F)(F)F [Example D-4, (S)-1,1,1-Trifluoropropan-2-yl (4-(3-(3-amino-3-oxopropyl)pyridazin-4-yl)-2-fluoro-3-(2-fluorophenoxy)phenyl)carbamate]	< 0.3
CC(C)OC(=O)Nc1ccc(-c2cccnc2CNC(N)=O)c(Cc2ccccc2F)c1F [Example A-22]	< 0.3
CC1(OC(=O)Nc2ccc(-c3ccnnc3CNC(N)=O)c(Cc3ccccc3F)c2F)CC1 [Example C-3, 1-Methylcyclopropyl (2-fluoro-3-(2-fluorobenzyl)-4-(3-(ureidomethyl)pyridazin-4-yl)phenyl)carbamate]	0.3 to 30
CC(C)C(=O)Nc1ccc(-c2cccnc2CNC(N)=O)c(Cc2ccccc2F)c1F [Example G-2, N-(2-Fluoro-3-(2-fluorobenzyl)-4-(2-(ureidomethyl)pyridin-3-yl)phenyl)isobutylamide]	0.3 to 30
CC(c1ccccc1)c1cc(NC(=O)OC(C)(C)C)ccc1-c1cccnc1CCC(N)=O (centres unmarked) [Example A-12, tert-Butyl (4-(2-(3-amino-3-oxopropyl)pyridine-3-yl)-3-(1-phenylethyl)phenyl)carbamate]	0.3 to 30
NC(=O)NCc1ncccc1-c1ccc(NC(=O)N2CC3(CCC3)C2)c(F)c1Cc1ccccc1F [Example G-7, N-(2-Fluoro-3-(2-fluorobenzyl)-4-(2-(ureidomethyl)pyridin-3-yl)phenyl)-2-azaspiro[3.3]heptane-2-carboxamide]	< 0.3
COC[C@H](C)OC(=O)Nc1ccc(-c2cccnc2CNC(N)=O)c(Cc2ccccc2F)c1F [Example A-25, (S)-1-Methoxypropan-2-yl (2-fluoro-3-(2-fluorobenzyl)-4-(2-(ureidomethyl)pyridin-3-yl)phenyl)carbamate]	0.3 to 30
NC(=O)CCc1ncccc1-c1ccc(NC(=O)OC2CC(F)(F)C2)c(F)c1C(=O)c1ccccc1C(F)(F)F [Example E-9, 3,3-Difluorocyclobutyl (4-(2-(3-amino-3-oxopropyl)pyridin-3-yl)-2-fluoro-3-(2-(trifluoromethyl)benzoyl)phenyl)carbamate]	0.3 to 30
CC1(C(=O)Nc2ccc(-c3cccnc3CNC(N)=O)c(Cc3ccccc3F)c2F)CC1 [Example G-1, N-(2-Fluoro-3-(2-fluorobenzyl)-4-(2-(ureidomethyl)pyridin-3-yl)phenyl)-1-methylcyclopropane-1-carboxamide]	0.3 to 30
